Source: US12453709B2, “Compositions and methods for treating autism” (priority 2013, dated 2025)

Tests used:
[1] = system: male patients diagnosed with autism; experiment: Study HT 02-121: Clinical Global Impression (CGI) rating scales; format: in vivo, human; conditions: for CGI-I Mean Change from Baseline / CGI-I Treatment effect versus placebo / CGI-I change from Baseline, median / CGI-S Mean Change from Baseline / CGI-S Treatment effect versus placebo / CGI-S change from Baseline, median: Week 4/LOCF
Method: (§1) This clinical study was a randomized double-blind, placebo-controlled two-cohort, 4-week dose-escalation study that incorporated two open-label treatment groups to assess the safety and efficacy of L1-79 100 mg and 200 mg TID in male patients between the ages of […] years of age diagnosed with autism. The first cohort of 20 patients was comprised of three groups of patients: The first group of five patients received open-label L1-79 100 mg TID and underwent PK and EKG assessments. The remaining two groups in this cohort consisted of 15 patients randomized on a 2:1 basis to receive L1-79 100 mg TID or placebo. The PK and safety data from the open-label L1-79 100 mg TID group was submitted to FDA for review and acceptance before the second cohort was enrolled. The second cohort was procedurally identical to the first. The second cohort of 20 patients was comprised of the same three groups of patients but a dose of 200 mg TID was used instead of 100 mg TID. The key inclusion criteria were as follows: (1) males between 13 and 21 years of age, (2) DSM-5 compliant diagnosis of autism spectrum disorder, confirmed by the Autistic Diagnosis Interview Review (ADIR), and by an ADOS-2 score consistent with a diagnosis of autism, (3) must have been stable on no more than one concomitant medication and no planned changes in psychosocial interventions during the study.
The primary efficacy endpoint was the determination of the clinical improvement by the investigator as documented by the Clinical Global Impression (CGI) rating scales. Additional efficacy endpoints included: (1) changes from baseline in the Socialization and Communication Domains of the Vineland Adaptive Behavior Scales, Second Edition (VABS II) parent/caregiver rating form, (2) changes from baseline in the ADOS-2 Total Score and subscores, (3) changes in the Social Responsiveness Scale, Second Edition (SRS-2) Total Score and subscales, (4) changes in the ABC-C domains, (5) changes in the Repetitive Behavior Scale-Revised (RBS-R) Total Score and subscales. Given the exploratory design of this study only descriptive statistics were planned. […]
Responder definitions for CGI-S were defined as improvement only (instead of improvement or no change) since, unlike the other measures which were performed weekly, the CGI-S requires the clinician to give an overall assessment of the patients' clinical symptom severity based on all of the outcome measures and their movement over the entirety of the study.

[2] = system: male patients diagnosed with autism; experiment: Study HT 02-121: Aberrant Behavior Checklist-Community (ABC-C); format: in vivo, human; conditions: for ABC-C Hyperactivity and Noncompliance Mean Change from Baseline / ABC-C Hyperactivity and Noncompliance Treatment effect versus placebo / ABC-C Hyperactivity and Noncompliance change, median / ABC-C Inappropriate Speech Mean Change from Baseline / ABC-C Inappropriate Speech Treatment effect versus placebo / ABC-C Inappropriate Speech change, median / ABC-C Irritability and Agitation Mean Change from Baseline / ABC-C Irritability and Agitation Treatment effect versus placebo / ABC-C Irritability and Agitation change, median / ABC-C Lethargy and Social Withdrawal Mean Change from Baseline / ABC-C Lethargy and Social Withdrawal Treatment effect versus placebo / ABC-C Lethargy and Social Withdrawal change, median / ABC-C Stereotypic Behavior Mean Change from Baseline / ABC-C Stereotypic Behavior Treatment effect versus placebo / ABC-C Stereotypic Behavior change, median: Week 4/LOCF
Method: as §1
The primary efficacy endpoint was the determination of the clinical improvement by the investigator as documented by the Clinical Global Impression (CGI) rating scales. Additional efficacy endpoints included: (1) changes from baseline in the Socialization and Communication Domains of the Vineland Adaptive Behavior Scales, Second Edition (VABS II) parent/caregiver rating form, (2) changes from baseline in the ADOS-2 Total Score and subscores, (3) changes in the Social Responsiveness Scale, Second Edition (SRS-2) Total Score and subscales, (4) changes in the ABC-C domains, (5) changes in the Repetitive Behavior Scale-Revised (RBS-R) Total Score and subscales. Given the exploratory design of this study only descriptive statistics were planned.
In the preliminary study, all forms were completed at the study site in the presence of the investigator. In Cohort 1 of the present study, the VABS-II, SRS-2, ABC-C and RBS-R were filled out at home by the patient/patient's families prior to treatment visits and returned at treatment visits in order to expedite the execution of the study. […]

Structure (SMILES): CC(N)(Cc1ccc(O)cc1)C(=O)O (racemic) [L1-79, α-methyl-DL-tyrosine]
- responder analysis for CGI-S ([1]; 100 mg and 200 mg groups vs placebo, Week 4): clear dose response trend of improvement
- mean improvement on overall CGI-S versus placebo and 100 mg groups ([1]; 200 mg group, Week 4 or LOCF): 0.5 point
- CGI-I Mean Change from Baseline ([1]; DB 100 mg TID): −0.6
- CGI-I Treatment effect versus placebo ([1]; DB 100 mg TID): −0.4
- CGI-I change from Baseline, median ([1]; DB 100 mg TID): −1, −1, 0
- CGI-S Mean Change from Baseline ([1]; DB 100 mg TID): −0.3
- CGI-S Treatment effect versus placebo ([1]; DB 100 mg TID): −0.0
- CGI-S change from Baseline, median ([1]; DB 100 mg TID): −1, −0, 0
- CGI-I Mean Change from Baseline ([1]; DB 200 mg TID): −0.5
- CGI-I Treatment effect versus placebo ([1]; DB 200 mg TID): −0.3
- CGI-I change from Baseline, median ([1]; DB 200 mg TID): −1, 0, 0
- CGI-S Mean Change from Baseline ([1]; DB 200 mg TID): −0.8
- CGI-S Treatment effect versus placebo ([1]; DB 200 mg TID): −0.5
- CGI-S change from Baseline, median ([1]; DB 200 mg TID): −2, −1, 0
- change in the CGI-S compared to baseline ([1]; less than one month of treatment, blinded assessment): nearly one-point change
- ABC-C Lethargy and Social Withdrawal / Inappropriate Speech: responder analyses vs placebo ([2]; 200 mg group): greater tendency for patients to respond with improvement or no worsening
- ABC-C Hyperactivity and Noncompliance Mean Change from Baseline ([2]; DB 100 mg TID): 0.4
- ABC-C Hyperactivity and Noncompliance Treatment effect versus placebo ([2]; DB 100 mg TID): 4.9
- ABC-C Hyperactivity and Noncompliance change, median ([2]; DB 100 mg TID): 0, 0, 3
- ABC-C Inappropriate Speech Mean Change from Baseline ([2]; DB 100 mg TID): 0.0
- ABC-C Inappropriate Speech Treatment effect versus placebo ([2]; DB 100 mg TID): 1.6
- ABC-C Inappropriate Speech change, median ([2]; DB 100 mg TID): −2, 0, 1
- ABC-C Irritability and Agitation Mean Change from Baseline ([2]; DB 100 mg TID): −0.9
- ABC-C Irritability and Agitation Treatment effect versus placebo ([2]; DB 100 mg TID): 2.5
- ABC-C Irritability and Agitation change, median ([2]; DB 100 mg TID): −2, −1, 0
- ABC-C Lethargy and Social Withdrawal Mean Change from Baseline ([2]; DB 100 mg TID): −1.6
- ABC-C Lethargy and Social Withdrawal Treatment effect versus placebo ([2]; DB 100 mg TID): 3.9
- ABC-C Lethargy and Social Withdrawal change, median ([2]; DB 100 mg TID): −2, −1, 1
- ABC-C Stereotypic Behavior Mean Change from Baseline ([2]; DB 100 mg TID): 1.9
- ABC-C Stereotypic Behavior Treatment effect versus placebo ([2]; DB 100 mg TID): 2.5
- ABC-C Stereotypic Behavior change, median ([2]; DB 100 mg TID): 0, 0, 4
- ABC-C Hyperactivity and Noncompliance Mean Change from Baseline ([2]; DB 200 mg TID): −4.0
- ABC-C Hyperactivity and Noncompliance Treatment effect versus placebo ([2]; DB 200 mg TID): 0.5
- ABC-C Hyperactivity and Noncompliance change, median ([2]; DB 200 mg TID): −7, −1, 0
- ABC-C Inappropriate Speech Mean Change from Baseline ([2]; DB 200 mg TID): −2.0
- ABC-C Inappropriate Speech Treatment effect versus placebo ([2]; DB 200 mg TID): −0.4
- ABC-C Inappropriate Speech change, median ([2]; DB 200 mg TID): −4, −1, 0
- ABC-C Irritability and Agitation Mean Change from Baseline ([2]; DB 200 mg TID): −2.2
- ABC-C Irritability and Agitation Treatment effect versus placebo ([2]; DB 200 mg TID): 1.2
- ABC-C Irritability and Agitation change, median ([2]; DB 200 mg TID): −7, −2, 0
- ABC-C Lethargy and Social Withdrawal Mean Change from Baseline ([2]; DB 200 mg TID): −4.5
- ABC-C Lethargy and Social Withdrawal Treatment effect versus placebo ([2]; DB 200 mg TID): 1.0
- ABC-C Lethargy and Social Withdrawal change, median ([2]; DB 200 mg TID): −9, −2, 0
- ABC-C Stereotypic Behavior Mean Change from Baseline ([2]; DB 200 mg TID): −1.7
- ABC-C Stereotypic Behavior Treatment effect versus placebo ([2]; DB 200 mg TID): −1.1
- ABC-C Stereotypic Behavior change, median ([2]; DB 200 mg TID): −3, −1, 0
- patients with stability or improvement of ABC-C social and speech domains ([2]; L1-79 200 mg): 90 to 100%
